For orientation: solubility means the dissolved amount per volume that the medium holds.

Experimental findings from patent publication US12054509B2, “Antimicrobial compounds, compositions, and uses thereof” (Lakewood Amedex, Inc., priority 2017, dated 2024) are described below.

Data set [1] deals with Helicobacter pylori SS1 (CagA+, VacA+). Nature of the data set: Helicobacter pylori SS1 infection in C57BL6 mice, bacterial stomach titers. It is filed as in vivo. An excerpt:
The mouse strain used in this study is C57BL6 ranging from 5-6 weeks in age and 18-22 grams in weight. Mice are housed five to a cage with free access to food and water in accordance with NIB guidelines.
A bacterial strain of Helicobacter pylori SS1 (CagA+, VacA+) is adapted for the mouse model from a human clinical isolate and validated in this infection model.
At 6 days prior to infection, a frozen stock is streaked onto one to two Columbia 5% sheep blood agar plates, and the plates are microaerophilically incubated for 72 hours at 37° C. After 72 hours, the plate growth is subcultured onto five Columbia 5% sheep blood agar plates and is incubated as before. After another 72 hours of incubation, the plates are removed, and the plate growth is suspended in sterile 0.9% saline to an OD of 1.5-2.0 at 530 nm. This OD is approximately equal to 1.0e+09 CFU/mL, which is used to orally infect the mice on all 3 infection days. To infect mice, the mice are orally dosed 0.25 mL of the 1.0e+09 CFU/mL via a 20-22 G gavage needle. Mice need to be fasted only before the first infection.
At 1 week post-infection, mice are treated with Nu-8. Multiple dose antibiotic therapies are administered orally at 0.2 mL/dose. Antibiotics are administered 2 times per day and continued for 7 days. The control group is administered the vehicle alone.
Food is removed from cages 18 hours prior to euthanizing animals and each cage is clearly labeled that the animals are being experimentally fasted. Mice are euthanized (CO2 & cervical dislocation). […] The excised stomach is placed into a sterile petri dish and the luminal contents are rinsed away with sterile 1×PBS. Each rinsed stomach is placed into a 14-mL Falcon tube containing 2 mL of 1×PBS and stored on ice. Each stomach is homogenized, 10-fold serial diluted in 1×PBS, spot plated onto Columbia agar with 3.5% laked horse blood±the DENT selective antibiotic supplement, and microaerophilically incubated for 5 days at 37° C. Then, colonies are counted.
Nu-8 is administered at various doses (mg/kg), orally, twice-a-day for 7 days. The formulations, concentration and dose volumes for treatment is established prior to dosing. The positive control group consists of a triple therapy regimen (omeprazole, amoxicillin, and clarithromycin). Negative control used dosing solution without drugs.

Data set [2] has as its system wild type E. coli (ATCC 25922). The data set can be described thus: Bacterial cytological profiling at pH 4, 5.5, 7 (Example 8), E. coli. It counts as cell-based. The conditions noted are these: pH 5.5 and 7. The protocol: (§1) This bacterial cytological profiling (BCP) investigation uses methods and materials described previously by Nonejuie, P., Burkart, M., Poglianoa, K., Pogiano, J. (2013). Bacterial cytological profiling rapidly identifies the cellular pathways targeted by antibacterial molecules. Proc. Natl. Acad. Sci. U.S.A. 110(40):16169-16174. doi: 10.1073/pnas.1311066110.
(§2) For viable cell counts, cells are grown to OD600≈0.4 and diluted 1:1 into buffered or unbuffered media containing various compound concentrations. Samples are then collected and serially diluted (1:10) on a 96 well plate. Five microliters from each well are spotted on LB plates, incubated at 30° C., and viable cells are counted the next day.
(§3) Samples are collected at 10, 30, 120, and 240 min of exposure for viable cell count and imaging. For imaging, E. coli and S. aureus 200 μL of treated cells per time point are stained with 0.8 μg/mL FM4-64, 1.5 μg/mL DAPI, and 0.4 μM SYTOXGreen (Molecular Probes/Invitrogen). P. aeruginosa samples are stained 0.4 μM SYTOX Green, 28 μg/mL DAN, and 1 μg/mL FM 4-64. Cells are transferred to an agarose pad (20% LB, 1% agarose) for imaging.
(§4) For Nu-3 and Nu-8 stocks (at pH 4, 5.5 and 7), stock concentration is 500 mg/mL. For pH 4, the stocks are prepared by dissolving Nu-3 in 25 mM citrate buffer and Nu-8 in 350 mM citric acid. For pH 5.5, the stocks are prepared by dissolving Nu-3 in 25 mM citric-phosphate and Nu-8 in 25 mM critic. For pH 7, the stocks are prepared by dissolving Nu-3 and Nu-8 in 25 mM Sorensen phosphate buffer. 2×LB (lysogeny broth) solutions are prepared with 50 mM citrate buffer for pH 4, 50 mM citrate-phosphate buffer for pH 5.5, and 50 mM Sorensen phosphate buffer for pH 7.

Data set [3] relates to wild type P. aeruginosa (PAO1; K2732). Nature of the data set: Bacterial cytological profiling at pH 4, 5.5, 7 (Example 8), P. aeruginosa. It counts as cell-based. The protocol: as §1, §2, §3, §4
Data set [4] can be described thus: Solubility. It is filed as physicochemical. As to conditions: unit inferred.
Data set [5] relates to Haemophilus influenzae. Nature of the data set: MIC at pH 3.5 (CLSI, Mueller-Hinton broth). It is filed as cell-based. As to conditions: 5 isolates.

For `CCCCOP(=O)(O)OC[C@H]1O[C@@H](n2ccc(N)nc2=O)C[C@@H]1OP(=O)(O)OCCCC` [Nu-8, sodium ((2R,3S,5R)-5-(4-amino-2-oxopyrimidin-1(2H)-yl)-3-((butoxyoxidophosphor-yl)oxy)tetrahydrofuran-2-yl)methyl butyl phosphate], the “mean bacterial stomach titer” value in data set [1] (0.2 mg (1 mg/mL, 0.2 mL) PO bid 7 days, +7 Days) is listed as 5.62 log10 CFU; in data set [1] (0.2 mg (1 mg/mL, 0.2 mL) PO bid 7 days, +14 Days), 6.2 log10 CFU; in data set [1] (1.0 mg (5 mg/mL, 0.2 mL) PO bid 7 days, +7 Days), 5.21 log10 CFU; in data set [1] (1.0 mg (5 mg/mL, 0.2 mL) PO bid 7 days, +14 Days), 5.67 log10 CFU; in data set [1] (2 mg (10 mg/mL, 0.2 mL) PO bid 7 days, +7 Days), 4.74 log10 CFU; in data set [1] (2 mg (10 mg/mL, 0.2 mL) PO bid 7 days, +14 Days), 5.81 log10 CFU. In data set [2], the “effect on cell permeability, viability and growth” value is “alters E. coli cell permeability and reduces cell viability and growth”. In addition, the cell growth result in data set [3] (pH 5.5 and 7, 112.5 mg/mL) is reported as “reduction in cell growth”. Also, the “increase/change in cell permeability” value in data set [3] (pH 5.5 and 7, 112.5 mg/mL) is below 20%. The compound also showed a cell permeability in data set [3] (pH 7, 225 mg/mL, 10 min) of around 37%. The solubility in data set [4] amounted to 137 mg/mL. The MIC in data set [5] lay within 4690 to 9380 µg/mL.
